Results: PMC7211193, “Evaluation of absorption, distribution, metabolism, and excretion of [^14C]-rucaparib, a poly(ADP-ribose) polymerase inhibitor, in patients with advanced solid tumors” (Investigational New Drugs, 2019)
Where “and” joins values, the source holds several entries; their conditions need not be identical. Equal entries are not always repeated.

Key:
Format in all cases: in vivo, human
[1] = Safety assessment (CTCAE v4.03 adverse events)
Description: The safety of rucaparib was evaluated during the study. The National Cancer Institute Common Terminology Criteria for Adverse Events (CTCAE) grading system (version 4.03) was used to describe the severity of the adverse events (AEs) that occurred. Clinical laboratory, vital sign, 12-lead ECG, and physical examinations were also part of the safety assessment.

[2] = Metabolite identification by LC-MS/MS in plasma, urine and feces; conditions: F feces, P plasma, U urine
Description: (§1) Metabolite profiling and identification were performed on an LC system (Agilent) coupled to an LTQ Orbitrap mass spectrometer (Thermo Electron, Waltham, MA, USA) in combination with offline TopCount (LC-MS-TopCount) or online Radiomatic 625TR (LC-MS-Radiomatic; PerkinElmer). Proposed structures of the metabolites were based on accurate mass (<5 ppm) and comparison of mass spectral data of parent compound rucaparib and metabolite standard M324. The Radiomatic 625TR flow detector, equipped with a 200 μL flow cell, was operated using scintillation cocktail (Ultima-Flo M) delivered at a flow rate of 1 mL/min. Chromatography was done using a Phenomenex (Torrance, CA, USA) Luna Phenyl-Hexyl column (250 × 2 mm, 5 μm, 100 Å) at ambient temperature during the sample analysis. The mobile phase was (A) 0.05% TFA in water and (B) 0.05% TFA in acetonitrile, with a 0.2 mL/min flow rate. The gradient was as follows: 5% B over 2.1 min, to 20% B in 1.0 min, to 35% B in 16.9 min, isocratic at 35% B for 5 min, to 95% B over 5 min, and reduced to 5% B over 1 min, with total run time 45 min.
The LTQ Orbitrap mass spectrometer was equipped with an electrospray ionization interface and operated in positive ionization mode for metabolite profiling and identification. Mass spectra were acquired in full scan (MS) (m/z 150–1500) and data-dependent scan modes. Mass spectrometer parameter settings were: spray voltage, +5.0 kV; capillary temperature, 350 °C; sheath gas, 80 (arbitrary unit); auxiliary gas, 30 (arbitrary unit); activation Q, 0.25; activation time, 30 msec; resolution, 7500; and collision energy, 35 eV.
The structures of the metabolites were identified by LC-MS/MS based on comparisons of mass spectral fragmentation patterns with those produced by the parent compound. Further confirmation of the identities of the metabolites was based on the elemental composition determined from accurate mass analyses using an Orbitrap high-resolution mass spectrometer.
The structures of the major metabolites found in plasma, urine, and feces were also confirmed by comparisons with the synthetic reference standard M324.

[3] = Metabolite profiling in pooled urine (LC-MS-Radiomatic); conditions: for % Dose in urine: pooled urine, % of administered dose
Description: For each patient, urine samples from different collection intervals were pooled in proportion to their sample weight in order to obtain a pooled sample covering 90% of the TRA in urine. Pooled urine samples were lyophilized and then extracted at least twice with acetonitrile. The obtained supernatant was evaporated to dryness, and the dried residues were reconstituted in 20% acetonitrile in water containing 0.1% TFA. An aliquot of the supernatant was analyzed for TRA to determine extraction efficiency, and the mean recovery was ≈70%. Aliquots of the supernatants were injected into the HPLC coupled to UV and radioactive detectors to obtain metabolite profiles. The samples were also analyzed using LC-MS for metabolite identification.
as §1
(§2) The abundance of unchanged rucaparib and metabolites identified in plasma, urine, and feces was determined as a percentage of the TRA in the analyzed samples. Percentage of the administered dose of rucaparib and metabolites was calculated in urine and feces (formula A). The concentration of rucaparib and its metabolites in plasma (ng Eq h/mL) was calculated based on the specific activity, TRA, and percentage of peaks (formula B). The AUC0-24h value of rucaparib and its major metabolite M324 in plasma was calculated using both Hamilton method (formula C) and linear trapezoidal method (formula D). • (A) %Doseofmetabolite=TRAinurineorfeces(dpm)÷TRAinadministereddose(dpm)×%metabolitesinmatrix • (B) Metaboliteconcentrationsinplasma(ngEq/mL)=TRAinplasma(dpm/mL)specificactivity(ngEq/dpm)×%metabolitesinthematrix • (C) Hamiltonmethod:AUC0−24h(ngEqh/mL)=concentrationinHamilton(AUC0−24h)pooledplasma(ngEq/mL)×24(h) • (D) Lineartrapezoidalmethod:AUC0−24h(ngEqh/mL)=C1h/2×1h+C1h+C4h/2×(4h−1h)+C4h+C8h/2×(8h−4h)+C8h+C24h/2×(24h−8h)

[4] = Metabolite profiling in pooled feces (LC-MS-Radiomatic); conditions: for % Dose in feces: pooled fecal homogenate, % of administered dose
Description: For each patient, homogenized feces samples from different collection intervals were pooled in proportion to their sample weight in order to obtain a pooled sample covering 90% of the TRA recovered in feces. Aliquots of the pooled fecal samples were extracted at least twice with acetonitrile. The obtained supernatant was evaporated. The dried residues were reconstituted in 40% DMSO in water to obtain maximum recovery. An aliquot of the supernatant was analyzed for TRA to determine extraction efficiency, and the mean recovery was ≈75%. Aliquots of the supernatants were injected into the HPLC coupled to UV and radioactive detectors to obtain metabolite profiles. The sample supernatants were also analyzed using LC-MS to identify metabolites.
as §1, §2

[5] = N = 6, mean ± SD, listed as rucaparib

For `CNCc1ccc(-c2[nH]c3cc(F)cc4c3c2CCNC4=O)cc1` [Rucaparib, rucaparib], the “Total treatment-emergent AEs (TEAEs)” value ([1]; events, in four of six patients, single oral 600 mg) was “five”, the “Relation, severity and seriousness of TEAEs” value ([1]; investigator assessment) was “No TEAE was considered to be related to the study drug by the investigators, had a severity of more than CTCAE grade 2, led to a withdrawal of the patient, or was a serious AE” and the “Patients with TEAE vomiting” value ([1]; two events in two of six patients) was 33.3%. The “Matrix in which identified” value [2] was “P, U, F”, the “% of dose in pooled urine, Patient 01” value ([3]; Patient 01) was 14.3 % dose and the “% of dose in pooled urine, Patient 03” value ([3]; Patient 03) was 5.03 % dose. For the same compound, the “% of dose in pooled urine, Patient 05” value ([3]; Patient 05) was 2.85 % dose, the “% of dose in pooled urine, Patient 06” value ([3]; Patient 06) was 5.96 % dose and the “% of dose in pooled urine, Patient 08” value ([3]; Patient 08) was 10.7 % dose. For the same compound, the “% of dose in pooled urine, Patient 09” value ([3]; Patient 09) was 6.77 % dose, the “% Peak (of TRA) in urine” value ([3]; pooled urine covering 90% of urine radioactivity, N = 6, mean ± SD) was 44.9 ± 15.6% and the “% Dose in urine” value ([3]; N = 6, mean ± SD) was 7.59 ± 4.16%. For the same compound, the “% Dose in urine” value [3, 5] was “≈ 7.6% and > 7%”, the “% of dose in pooled fecal homogenate, Patient 01” value ([4]; Patient 01) was 50.6 % dose and the “% of dose in pooled fecal homogenate, Patient 05” value ([4]; Patient 05) was 55.8 % dose. The “% of dose in pooled fecal homogenate, Patient 06” value ([4]; Patient 06) was 70.1 % dose, the “% of dose in pooled fecal homogenate, Patient 08” value ([4]; Patient 08) was 68.2 % dose and the “% of dose in pooled fecal homogenate, Patient 09” value ([4]; Patient 09) was 71.8 % dose. The “% Peak (of TRA) in feces” value ([4]; pooled fecal homogenate covering >90% of fecal excretion, N = 6, mean ± SD) was 94.9 ± 4.95%, the “% Dose in feces” value ([4]; N = 6, mean ± SD) was 63.9 ± 8.60% and the “% Dose in feces” value [4, 5] was 63.9% and ≈ 64%.
